Laboratory results taken from patent US20020164368A1, “Male contraceptive method and composition” (priority 2000, published 2002).

target: T1, Acrosin (purified from boar sperm) (Sus scrofa, UniProt P08001); experiment: Acrosin inhibition in vitro (BAPNA substrate); type: biochemical; conditions: not given
T1 construct: Acrosin (200 μl, purified from boar sperm); from tissue; host or cells: boar sperm
T1 sequence (P08001 17-415): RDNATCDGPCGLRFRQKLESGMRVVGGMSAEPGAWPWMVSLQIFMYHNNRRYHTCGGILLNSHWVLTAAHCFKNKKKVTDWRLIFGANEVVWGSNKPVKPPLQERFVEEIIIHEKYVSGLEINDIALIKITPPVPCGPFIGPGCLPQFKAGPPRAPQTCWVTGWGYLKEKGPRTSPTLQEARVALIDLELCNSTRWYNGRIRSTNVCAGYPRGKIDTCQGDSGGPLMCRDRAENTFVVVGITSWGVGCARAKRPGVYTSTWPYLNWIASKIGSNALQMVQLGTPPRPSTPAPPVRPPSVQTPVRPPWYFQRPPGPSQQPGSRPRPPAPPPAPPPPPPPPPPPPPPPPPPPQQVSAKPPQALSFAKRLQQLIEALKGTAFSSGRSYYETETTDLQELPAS
Experimental: The inhibition of acrosin is assessed in vitro using benzoyl arginine p-nitroanilide (BAPNA) as the enzyme substrate according to the following procedure. Acrosin (200 μl, purified from boar sperm) and a solution of the test compound (200 μl, 10 mg/ml., or 50 μl, 1 mg/ml) in 0.05 M triethanolamine buffer, pH 7.8, are incubated at room temperature for 5 minutes. A control using the buffer solution without the test compound added is also run. A 200 μl-sample of the incubation mixture is then withdrawn and is added to a cuvettecontaining BAPNA (1 ml) and triethanolamine buffer (2 ml). The mixture is stirred and placed in a Gilford recording spectrophotometer. The increase in optical density at 383 mn is measured. One unit of acrosin activity is defined as the amount of acrosin which will cause an increase in optical density at 383 mn of 0.001/minute. One unit of inhibitory activity is defined as the amount of inhibitor which will cause a reduction in the increase in optical density at 383 nm of 0.001/minute.

For `O=S(=O)([O-])Oc1ccc(OS(=O)(=O)[O-])c2ccccc12.[Na+].[Na+]` [Compound 28], which “acrosin inhibition activity (in words)” value is on record?
Its value is “The following compounds have also been found to have acrosin inhibition”.

How did the “acrosin inhibition activity (in words)” value turn out when `O=S(=O)([O-])Oc1c[nH]c2ccccc12.[Na+]` [Compound 29] was run?
The value was “The following compounds have also been found to have acrosin inhibition”.

same assay, conditions: Conc. of Test Solution 10 Mg/ml

`CCCCCCCCCCCCOS(=O)(=O)[O-].[Na+]` [n-dodecyl] was tested. Which “Inhibition (units/mg.)” value did it give?
The value was 0 units/mg.

same assay, conditions: Other salts ROSO3M; Conc. of Test Sol. 10 mg/ml

`CCCCCCCCCCCCOS(=O)(=O)O.OCCNCCO` [CH3(CH2)11— diethanol-ammonium] was tested. Which “Inhibition (units/mg)” value did it give?
The value was 90,000 units/mg.

Which “Inhibition (units/mg)” value does the source give for `CCCCCCCCCCCCOS(=O)(=O)O.OCCN(CCO)CCO` [CH3(CH2)11— triethanol-ammonium] here?
The value was 90,000 units/mg.

target: T2, Testicular bovine hyaluronidase (Bos taurus, UniProt Q2YDK3); experiment: Hyaluronidase inhibition in vitro (chondroitin sulfate agar plate); type: biochemical; conditions: Conc. of Test Solution 1 Mg/ml
T2 construct: Testicular bovine hyaluronidase (Sigma Chemical Company); purchased Sigma Chemical Company; host or cells: bovine testes
T2 sequence (Q2YDK3 36-553): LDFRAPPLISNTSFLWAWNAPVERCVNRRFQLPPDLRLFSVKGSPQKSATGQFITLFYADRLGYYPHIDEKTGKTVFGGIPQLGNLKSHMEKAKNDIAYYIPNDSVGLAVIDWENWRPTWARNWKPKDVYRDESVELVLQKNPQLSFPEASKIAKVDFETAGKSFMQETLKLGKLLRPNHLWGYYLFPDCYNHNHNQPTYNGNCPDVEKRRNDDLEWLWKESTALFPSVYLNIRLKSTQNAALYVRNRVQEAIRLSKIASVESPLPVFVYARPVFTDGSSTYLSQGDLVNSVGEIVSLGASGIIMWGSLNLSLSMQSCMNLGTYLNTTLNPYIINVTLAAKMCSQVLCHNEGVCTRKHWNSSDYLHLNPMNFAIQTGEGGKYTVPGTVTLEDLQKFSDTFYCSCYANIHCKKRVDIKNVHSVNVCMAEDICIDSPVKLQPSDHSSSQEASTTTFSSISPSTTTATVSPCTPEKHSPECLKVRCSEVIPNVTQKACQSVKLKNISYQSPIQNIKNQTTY
Experimental: The inhibition of hyaluronidase was assessed using chondroitin sulfate as the enzyme substrate according to the following procedure. Agar plates containing chondroitin sulfate (0.1 percent) were prepared by the following method: water solutions of I percent agarose, 2 M sodium chloride (0.1 vol.), 1 M sodium acetate (pH 5.0, 0.1 vol), and sodium azide (0.5 mg/ml, 0.1 vol.) qe mixed and the mixture is brought to the boiling temperature. After cooling to about 65° C., a solution of chondroitin sulfate (10 mgtml, 0.1 vol.) is added. After cooling to about 45° C., the resulting mixture (20 ml) is poured onto a petri dish. The plates are allowed to cool to room temperature. A well 2 mm in diameter is then cut in the agar surface. […] A control using only the buffer solution without added test compound is also run. The plates are then incubated overnight (about 16 hours) at 37° C. The zones of hydrolysis of chondroitin sulfate by hyaluronidase are visualized by flooding the plate with 10 percent cetyl trimethyl ammonium bromide. The area of the zone is logarithmically proportional to the concentration of hyaluronidase. Inhibitor activity is determined by comparing the area of hydrolysis from the test compound to the area of hydrolysis from the control. The results are expressed as percent inhibition calculated as follows: [formula]

`CCCCCCCCCCC(CCCCCCCC)COS(=O)(=O)O` (stereo not shown) [2-octyldodecyl] was tested. Which “% Inhibition” value did it give?
The value was 0%.

For `CC(C)CCCC(C)CCCC(C)CCOS(=O)(=O)[O-].[Na+]` (stereo not shown) [3,7,11-trimethyldodecyl], which “% Inhibition” value is on record?
The value was 39%.

How did the “% Inhibition” value turn out when `CC(C)CCCCCCCCCCCOS(=O)(=O)O` [12-methyltridecyl] was run?
Its value is 7%.

How did the “% Inhibition” value turn out when `CCCCCCCCCCCCC(C)OS(=O)(=O)O` (stereo not shown) [Compound 2-tetradecyl] was run?
Its value is 100%.

`CCCCCCCCCCC(CCC)OS(=O)(=O)[O-].[Na+]` (stereo not shown) [Compound 4-tetradecyl] was tested. Which “% Inhibition” value did it give?
The value was 0%.

Which “% Inhibition” value does the source give for `CCCCCCCCC(CCCCC)OS(=O)(=O)O` (stereo not shown) [Compound 6-tetradecyl] here?
The value was 12%.

Which “% Inhibition” value does the source give for `CCCCCCCCCC(CCCCCC)OS(=O)(=O)O` (stereo not shown) [Compound 7-hexadecyl] here?
The value was 0%.

Which “% Inhibition” value does the source give for `CCCCCCCC(CCCCCC)OS(=O)(=O)O` (stereo not shown) [Compound 7-tetradecyl] here?
Its value is 0%.

`CCCCCCCCC(CCCCCCC)OS(=O)(=O)O` (stereo not shown) [Compound 8-hexadecyl] was tested. Which “% Inhibition” value did it give?
The value was 0%.

How did the “% Inhibition” value turn out when `CCCCCCCCCC(CCCCCCCC)OS(=O)(=O)O` (stereo not shown) [Compound 9-octadecyl] was run?
Its value is 7%.

For `CCCCC/C=C\C/C=C\CCCCCCCCOS(=O)(=O)O` [linoleyl], which “% Inhibition” value is on record?
The value was 0%.

With `CCCC/C=C/CCCCCCCCOS(=O)(=O)[O-].[Na+]` [myristeladyl] as the molecule, how does the “% Inhibition” value read?
The value was 13%.

Which “% Inhibition” value does the source give for `CCCC/C=C\CCCCCCCCOS(=O)(=O)O` [myristoleyl] here?
Its value is 13%.

For `CCCCCCCCCCCCCCCCCCCCCCOS(=O)(=O)O` [n-docosyl], which “% Inhibition” value is on record?
Its value is 0%.

`CCCCCCCCCCCCCCCCCCCCCCCCCCCOS(=O)(=O)O` [n-heptacosyl] was tested. Which “% Inhibition” value did it give?
Its value is 0%.

How did the “% Inhibition” value turn out when `CCCCCCCCCCCCCCCCCCCCCCCCOS(=O)(=O)O` [n-tetracosyl] was run?
Its value is 0%.

Which “% Inhibition” value does the source give for `CCCCCCCC/C=C\CCCCCCCCOS(=O)(=O)O` [oleyl] here?
Its value is 0%.

With `CC(C)CCCC(C)CCOS(=O)(=O)O` (stereo not shown) [tetrahydrogeranyl] as the molecule, how does the “% Inhibition” value read?
Its value is 0%.

same assay, conditions: Conc. of Test Solution 10 Mg/ml

Which “% Inhibition” value does the source give for `CCCCCCCCCCCCOS(=O)(=O)[O-].[Na+]` [n-dodecyl] here?
Its value is 71%.

Which “% Inhibition” value does the source give for `CCCCCCCCCCCCCCCCCCCCOS(=O)(=O)O` [n-eicosyl] here?
The value was 0%.

For `CCCCCCCCCCCOS(=O)(=O)O` [n-hendecyl], which “% Inhibition” value is on record?
The value was 100%.

How did the “% Inhibition” value turn out when `CCCCCCCCCCCCCCCCCOS(=O)(=O)O` [n-heptadecyl] was run?
Its value is 23%.

For `CCCCCCCCCCCCCCCCOS(=O)(=O)O` [n-hexadecyl], which “% Inhibition” value is on record?
The value was 75%.

How did the “% Inhibition” value turn out when `CCCCCCCCCCCCCCCCCCOS(=O)(=O)O` [n-octadecyl] was run?
The value was 30%.

For `CCCCCCCCCCCCCCCOS(=O)(=O)O` [n-pentadecyl], which “% Inhibition” value is on record?
Its value is 60%.

`CCCCCCCCCCCCCOS(=O)(=O)O` [n-tridecyl] was tested. Which “% Inhibition” value did it give?
The value was 80%.

same assay, conditions: Other salts ROSO3M; Conc. of Test Sol. 10 (mg/ul)

For `CCCCCCCCCCCCOS(=O)(=O)O.OCCNCCO` [CH3(CH2)11— diethanol-ammonium], which “% Inhibition” value is on record?
Its value is 100%.

`CCCCCCCCCCCCOS(=O)(=O)O.OCCN(CCO)CCO` [CH3(CH2)11— triethanol-ammonium] was tested. Which “% Inhibition” value did it give?
Its value is 100%.

test system: Dutch Belted male rabbits of proven fertility; experiment: Antifertility effects in vivo, oral dosing of male rabbits; design: species or system rabbit; conditions: administered to male rabbits, procedures of Example 4
Experimental: The animals (of proven fertility) are then bred and the genital system of the females is examined to determine the number of embryos.
Dutch Belted male rabbits of proven fertility were randomly selected. They were given 10 mg/kg tetradecyl sodium sulfate suspended in Ca++ free Ringer's solution by gavage. Control animals were given Ca++ free Ringer's solution by gavage. The male rabbits were dosed each day for 3 days and they were bred to females 2 hours after dosing and again 8 hours after dosing. The female rabbits were then given 100 IU human chorionic gonadotrophin (HCG) to stimulate ovulation. Twenty four hours after the last dose of tetradecyl sodium sulfate the male rabbits were bred and the females treated as before. After twelve days the female rabbits were sacrificed and examined for embryos.

For “a ethyl a sulfodocosanoate [Compound 31]”, which “activity as male contraceptives” value is on record?
Its value is “activity as male contraceptives”.
